Source: PMC11491004, “CHF6523 data suggest that the phosphoinositide 3-kinase delta isoform is not a suitable target for the management of COPD” (Respiratory Research, 2024)

Legend:
[1] = test system: target biomarkers in sputum; assay: Target biomarkers of inflammation in induced sputum; type: in vivo, human; conditions: p < 0.05; with the exception of IL-5
Description: (§1) All assessment timings were based on the morning dose. Pre-dose on Days 1 and 28 of each treatment period, blood samples were taken for pharmacokinetic analyses, followed by forced oscillation (including slow vital capacity manoeuvres for inspiratory capacity [IC] and vital capacity [VC]), spirometry (forced expiratory volume in 1 s [FEV1] and forced vital capacity [FVC]), and the COPD Assessment Test (CAT). Blood samples were also taken up to 12 h post-dose on Days 1 and 28 for pharmacokinetic analyses, with blood samples for biomarker assessment pre-dose on Day 1 and 2 h post-dose on Day 28, and spirometry pre-dose on Days 20 and 24. […]
(§2) Fold-change from baseline in cell counts, target biomarkers in sputum and blood, and PIP3 were log-transformed and analysed using an analysis of covariance (ANCOVA) model, with treatment, patient, and period as fixed effects, and baseline value as covariate. Changes from baseline in spirometry, forced oscillation and CAT endpoints were analysed using a similar ANCOVA model, but without log transformation. Rescue medication data were analysed using an analysis of variance model, including treatment, period and patient as fixed effects. […]

in-vivo guinea pig model = assay: In-vivo guinea pig cough model
[2] = Parts 1 and 2, single and multiple ascending dose; some mild inhalation-related cough; cited from earlier work
[3] = test system: ion channels implicated in the cough reflex; assay: Electrophysiology in-vitro examination; type: biochemical
[4] = test system: target biomarkers in plasma; assay: Target biomarkers in plasma; type: in vivo, human; conditions: p < 0.05
Description: as §1, §2

proteins in sputum = assay: Tandem mass tag mass spectrometry proteomics in sputum; type: in vivo, human; conditions: FDR < 0.05, mixed effect modelling
Description: Sputum samples were weighed and solubilised with sodium dodecyl sulphate and dithiothreitol, and were incubated for 10 min at 95°C. First, quantification was performed by the Bradford Assay, with 50 μg of each sample digested with Trypsin following the S-trap micro protocol; 25 μg of each sample was dried, and reconstituted with TMT10plex (Thermo Scientific) following the manufacturer’s instructions. The 98 samples were divided into eleven TMT10plexes groups; 10 μg of each sample were combined, taking into account the peptide quantification, and after combining samples were desalted.
Samples were analysed with a Thermo Scientific Dionex Ultimate 3000 nano RSLC coupled to a Orbitrap Fusion Lumos mass spectrometer (Thermo Scientific) fitted with nanoESI source. Peptides were separated on a EasySpray (75 µm x 500 mm, 2 μm, 100Å) (Thermo Scientific) heated to 40°C at 300 nL/min. The mass spectrometer was operated in data-dependent acquisition (DDA) mode. […] For the MS3 analyses for TMT quantification, multiple fragment ions from the previous MS2 scan (SPS ions) were co- selected and fragmented by HCD.
Database searches were performed with Proteome Discoverer v2.4 software (Thermo Scientific) using Sequest HT search engine and UniProt Homo Sapiens (2023) and contaminants. […] TMT reporter ions intensities were used for protein quantification. […]

[5] = Spirometry (pre-dose FEV1 and FVC); type: in vivo, human
Description: All assessment timings were based on the morning dose. Pre-dose on Days 1 and 28 of each treatment period, blood samples were taken for pharmacokinetic analyses, followed by forced oscillation (including slow vital capacity manoeuvres for inspiratory capacity [IC] and vital capacity [VC]), spirometry (forced expiratory volume in 1 s [FEV1] and forced vital capacity [FVC]), and the COPD Assessment Test (CAT). Blood samples were also taken up to 12 h post-dose on Days 1 and 28 for pharmacokinetic analyses, with blood samples for biomarker assessment pre-dose on Day 1 and 2 h post-dose on Day 28, and spirometry pre-dose on Days 20 and 24. Sputum was induced prior to each treatment period for baseline determination of biomarkers, and post-dose on Day 20 for collection of phosphatidylinositol (3,4,5)-trisphosphate (PIP3), and on Days 24 and 28 for collection of biomarkers.
Fold-change from baseline in cell counts, target biomarkers in sputum and blood, and PIP3 were log-transformed and analysed using an analysis of covariance (ANCOVA) model, with treatment, patient, and period as fixed effects, and baseline value as covariate. Changes from baseline in spirometry, forced oscillation and CAT endpoints were analysed using a similar ANCOVA model, but without log transformation. Rescue medication data were analysed using an analysis of variance model, including treatment, period and patient as fixed effects. Other data, including the proportion of days on which patients coughed and the cough VAS results, are presented descriptively only. Further details, including the transcriptomics, mass-spectrometry and Olink proteomics, bioinformatics and multi-omic data integration are in the supplement.

Structure (SMILES): C[C@@H](c1oc(=O)c2ccccc2c1-c1cccc(CN2CCN(C)CC2)c1)n1nc(-c2cncc(O)c2)c2c(N)ncnc21 [CHF6523]
- CHF6523–placebo differences in target biomarkers in sputum [1]: no statistically significant
- Coughing in guinea pig, formulation with alternative salts (in-vivo guinea pig model; formulation changed to use alternative salts): ineffective in influencing cough
- Coughing in guinea pig (in-vivo guinea pig model; in-vivo guinea pig model, salt form used in the study): trigger coughing
- Safety profile in healthy volunteers [2]: acceptable safety profile
- Impact on ion channels implicated in the cough reflex [3]: no discernible impact
- CHF6523–placebo differences in the target biomarkers in plasma [4]: no statistically significant
- Proteins significantly modulated by treatment, of the 413 evaluated (proteins in sputum): only BPI fold-containing family B member 1 (BPIFB1) was significantly modulated by treatment
- Change from baseline in pre-dose FEV1: CHF6523–placebo difference (95% CI) ([5]; Day 20): −79 (−149, −9) mL
- Change from baseline in pre-dose FVC: CHF6523–placebo difference (95% CI) ([5]; Day 20): −38 (−191, 116) mL
- Change from baseline in pre-dose FEV1: CHF6523–placebo difference (95% CI) ([5]; Day 24): −79 (−141, −17) mL
- Change from baseline in pre-dose FVC: CHF6523–placebo difference (95% CI) ([5]; Day 24): −25 (−170, 120) mL
- Change from baseline in pre-dose FEV1: CHF6523–placebo difference (95% CI) ([5]; Day 28): −146 (−242, −50) mL
